According to US20230374035A1, “RAS INHIBITORS” (Revolution Medicines, Inc., priority 2019, published 2023):

Key:
NCI-H358 (K-Ras G12C) = assay: CellTiter-Glo Cell Viability Assay; assay type: cell-based; conditions: Homo sapiens, NCI-H358, 120 h; H358, 5-day treatment
Method: Determination of Cell Viability in RAS Mutant Cancer Cell Lines
Protocol: CellTiter-Glo® Cell Viability Assay
Note—The following protocol describes a procedure for monitoring cell viability of K-Ras mutant cancer cell lines in response to a compound of the invention. Other RAS isoforms may be employed, though the number of cells to be seeded will vary based on cell line used.
Test compounds (132.5 nl) were directly dispensed into the assay plates containing cells. […] On day 5, assay plates and their contents were equilibrated to room temperature for approximately 30 minutes. […] Luminescence was measured using the PerkinElmer Enspire. Data were normalized by the following: (Sample signal/Avg. DMSO)*100. The data were fit using a four-parameter logistic fit.

NRAS Q61K = NRAS Q61K (Homo sapiens, UniProt P01111+P62937, Q61K); assay: Disruption of BRAF RBD interaction with Ras (FRET / MOA assay); assay type: biochemical; conditions: read-out: NRAS Q61K FRET data IC50
Method: (§1) Compound is present in plate wells as a 10-point 3-fold dilution series starting at a final concentration of 30 μM. […] Compounds that facilitate disruption of a Ras:RAF complex are identified as those eliciting a decrease in the TR-FRET ratio relative to DMSO control wells.
(§2) Note—The following protocol describes a procedure for monitoring disruption of K-Ras G12C (GMP-PNP) binding to BRAF^RBD by a compound of the invention. This protocol may also be executed substituting other Ras proteins or nucleotides.
(§3) The purpose of this biochemical assay was to measure the ability of test compounds to facilitate ternary complex formation between a nucleotide-loaded K-Ras isoform and Cyclophilin A; the resulting ternary complex disrupts binding to a BRAF^RBD construct, inhibiting K-Ras signaling through a RAF effector. Data is reported as IC50 values.
(§4) Compound was present in plate wells as a 10-point 3-fold dilution series starting at a final concentration of 30 μM. […] Compounds that facilitate disruption of a K-Ras:RAF complex were identified as those eliciting a decrease in the TR-FRET ratio relative to DMSO control wells.

NRAS Q61R = NRAS Q61R (Homo sapiens, UniProt P01111+P62937, Q61R); assay: as above; assay type: biochemical; conditions: read-out: NRAS Q61R FRET data IC50
Method: as §1, §2, §3, §4

Sequence of NRAS Q61K (P01111 whole entry Q61K): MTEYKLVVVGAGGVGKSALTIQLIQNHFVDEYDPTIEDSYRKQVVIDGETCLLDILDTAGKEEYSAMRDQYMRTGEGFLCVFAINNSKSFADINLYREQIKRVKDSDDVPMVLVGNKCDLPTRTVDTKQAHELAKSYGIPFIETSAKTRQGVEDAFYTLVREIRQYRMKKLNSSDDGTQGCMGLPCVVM
Sequence of NRAS Q61K (P62937 whole entry): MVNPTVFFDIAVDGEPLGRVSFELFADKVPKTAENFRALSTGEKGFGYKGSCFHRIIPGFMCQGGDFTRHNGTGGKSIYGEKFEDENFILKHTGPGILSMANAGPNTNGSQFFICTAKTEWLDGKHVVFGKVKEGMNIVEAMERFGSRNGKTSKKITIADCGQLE
Sequence of NRAS Q61R (P01111 whole entry Q61R): as the sequence (P01111 whole entry Q61K) above, with K61R counted along it
Sequence of NRAS Q61R (P62937 whole entry): as the sequence (P62937 whole entry) above

| IC50 (NCI-H358 (K-Ras G12C)) [nM] | IC50 (NRAS Q61K) [nM] | IC50 (NRAS Q61R) [nM] | SMILES |
| --- | --- | --- | --- |
| < 10 | – | – | CCn1c(-c2cccnc2[C@H](C)OC)c2c3cc(ccc31)-c1csc(n1)C[C@H](NC(=O)[C@H](C(C)C)N(C)C(=O)N1CC(C3COC3)C1)C(=O)N1CCC[C@H](N1)C(=O)OCC(C)(C)C2 (atropisomer, axis not shown) [Compound A298] |
| < 10 | 10 to 100 | – | CCn1c(-c2cccnc2[C@H](C)OC)c2c3cc(ccc31)-c1csc(n1)C[C@H](NC(=O)[C@H](C(C)C)N(C)C(=O)N1CCO[C@H](C)C1)C(=O)N1CCC[C@H](N1)C(=O)OCC(C)(C)C2 (atropisomer, axis not shown) [Compound A310] |
| – | 10 to 100 | 10 to 100 | CCn1c(-c2cccnc2[C@H](C)OC)c2c3cc(ccc31)-c1csc(n1)C[C@H](NC(=O)[C@H](C(C)C)N(C)C(=O)N1C[C@H]3COC[C@H]3C1)C(=O)N1CCC[C@H](N1)C(=O)OCC(C)(C)C2 (atropisomer, axis not shown) [Compound A312] |
| < 10 | – | – | CCn1c(-c2cccnc2[C@H](C)OC)c2c3cc(ccc31)-c1csc(n1)C[C@H](NC(=O)[C@H](C(C)C)N(C)C(=O)N1CC(N3CCOCC3)C1)C(=O)N1CCC[C@H](N1)C(=O)OCC(C)(C)C2 (atropisomer, axis not shown) [Compound A338] |
| < 10 | 10 to 100 | – | CCn1c(-c2cccnc2[C@H](C)OC)c2c3cc(ccc31)-c1csc(n1)C[C@H](NC(=O)[C@H](C(C)C)N(C)C(=O)N1CC(O)C1)C(=O)N1CCC[C@H](N1)C(=O)OCC(C)(C)C2 (atropisomer, axis not shown) [Compound A358] |
| < 10 | – | – | CCn1c(-c2cccnc2[C@H](C)OC)c2c3cc(ccc31)-c1cc(O)cc(c1)C[C@H](NC(=O)[C@H](C(C)C)N(C)C(=O)[C@@H]1CCN(C(=O)OC)C1)C(=O)N1CCC[C@H](N1)C(=O)OCC(C)(C)C2 (atropisomer, axis not shown) [Compound A365] |
| – | 10 to 100 | 10 to 100 | CCn1c(-c2cccnc2[C@H](C)OC)c2c3cc(ccc31)-c1cc(O)cc(c1)C[C@H](NC(=O)[C@H](C(C)C)N(C)C(=O)[C@@H]1OCC[C@@H]1c1ccccc1)C(=O)N1CCC[C@H](N1)C(=O)OCC(C)(C)C2 (atropisomer, axis not shown) [Compound A415] |
| < 10 | – | – | CCn1c(-c2cc(N3CCN(C)CC3)cnc2[C@H](C)OC)c2c3cc(ccc31)-c1csc(n1)C[C@H](NC(=O)[C@H](C(C)C)N(C)C(=O)[C@H]1CCCS1(=O)=O)C(=O)N1CCC[C@H](N1)C(=O)OCC(C)(C)C2 (atropisomer, axis not shown) [Compound A439] |
| – | 10 to 100 | 10 to 100 | CCn1c(-c2cccnc2[C@H](C)OC)c2c3cc(ccc31)-c1csc(n1)C[C@H](NC(=O)[C@H](C(C)C)N(C)C(=O)N(C)N(C)C)C(=O)N1CCC[C@H](N1)C(=O)OCC(C)(C)C2 (atropisomer, axis not shown) [Compound A454] |
| < 10 | 10 to 100 | – | CCn1c(-c2cccnc2[C@H](C)OC)c2c3cc(ccc31)-c1csc(n1)C[C@H](NC(=O)[C@H](C(C)C)N(C)C(=O)N1CC3(CC(N4CC(F)C4)C3)C1)C(=O)N1CCC[C@H](N1)C(=O)OCC(C)(C)C2 (atropisomer, axis not shown) [Compound A457] |
| < 10 | – | – | CCn1c(-c2cc(N3CCN(C)CC3)cnc2[C@H](C)OC)c2c3cc(ccc31)-c1csc(n1)C[C@H](NC(=O)[C@H](C(C)C)N(C)C(=O)[C@@H]1OCC[C@@H]1c1cccnc1)C(=O)N1CCC[C@H](N1)C(=O)OCC(C)(C)C2 (atropisomer, axis not shown) [Compound A490] |
| < 10 | 10 to 100 | – | CCn1c(-c2cccnc2[C@H](C)OC)c2c3cc(ccc31)-c1csc(n1)C[C@H](NC(=O)[C@H](C(C)C)N(C)C(=O)N1CC([C@@H](CO)OC)C1)C(=O)N1CCC[C@H](N1)C(=O)OCC(C)(C)C2 (atropisomer, axis not shown) [Compound A514] |
| < 10 | 10 to 100 | – | CCn1c(-c2cccnc2[C@H](C)OC)c2c3cc(ccc31)-c1csc(n1)C[C@H](NC(=O)[C@H](C(C)C)N(C)C(=O)N1CC([C@H](CO)OC)C1)C(=O)N1CCC[C@H](N1)C(=O)OCC(C)(C)C2 (atropisomer, axis not shown) [Compound A515] |
| < 10 | 10 to 100 | – | CCn1c(-c2cccnc2[C@H](C)OC)c2c3cc(ccc31)-c1csc(n1)C[C@H](NC(=O)[C@H](C(C)C)N(C)C(=O)N1CC(C(=O)N3CCOCC3)C1)C(=O)N1CCC[C@H](N1)C(=O)OCC(C)(C)C2 (atropisomer, axis not shown) [Compound A543] |
| < 10 | 10 to 100 | – | CCn1c(-c2cccnc2[C@H](C)OC)c2c3cc(ccc31)-c1csc(n1)C[C@H](NC(=O)[C@H](C(C)C)N(C)C(=O)N1CCO[C@H](CN(C)C)C1)C(=O)N1CCC[C@H](N1)C(=O)OCC(C)(C)C2 (atropisomer, axis not shown) [Compound A590] |
| – | 10 to 100 | – | CCn1c(-c2cccnc2[C@H](C)OC)c2c3cc(ccc31)-c1csc(n1)C[C@H](NC(=O)[C@H](C(C)C)N(C)C(=O)N1CCO[C@@H](CN(C)C)C1)C(=O)N1CCC[C@H](N1)C(=O)OCC(C)(C)C2 (atropisomer, axis not shown) [Compound A591] |
| – | 10 to 100 | – | CCn1c(-c2cccnc2[C@H](C)OC)c2c3cc(ccc31)-c1csc(n1)C[C@H](NC(=O)[C@H](C(C)C)N(C)C(=O)N1CCN(C(=O)[C@@H]3CCCN3C)CC1)C(=O)N1CCC[C@H](N1)C(=O)OCC(C)(C)C2 (atropisomer, axis not shown) [Compound A596] |
| – | 10 to 100 | – | CCn1c(-c2cccnc2[C@H](C)OC)c2c3cc(ccc31)-c1csc(n1)[C@@H](OC)[C@H](NC(=O)[C@H](C(C)C)N(C)C(=O)N(C)C)C(=O)N1CCC[C@H](N1)C(=O)OCC(C)(C)C2 (atropisomer, axis not shown) [Compound A598, (2S)—N-((6^3S,3S,4S,Z)-1^1-ethyl-3-methoxy-1^2-(2-((S)-1-methoxyethyl)pyridin-3-yl)-10,10-dimethyl-5,7-dioxo-6^1,6^2,6^3,6^4,6^5,6^6-hexahydro-1^1H-8-oxa-2(4,2)-thiazola-1(5,3)-indola-6(1,3)-pyridazinacycloundecaphane-4-yl)-3-methyl-2-(1,3,3-trimethylureido)butanamide] |
| – | 10 to 100 | – | CCn1c(-c2cccnc2[C@H](C)OC)c2c3cc(ccc31)-c1csc(n1)C[C@H](NC(=O)[C@H](C(C)C)N(C)C(=O)N1CCO[C@@H](c3ccccc3)C1)C(=O)N1CCC[C@H](N1)C(=O)OCC(C)(C)C2 (atropisomer, axis not shown) [Compound A600] |
| < 10 | – | – | CCn1c(-c2cccnc2[C@H](C)OC)c2c3cc(ccc31)-c1csc(n1)C[C@H](NC(=O)[C@H](C(C)C)N(C)C(=O)N1CCN(C(=O)C3CC3)CC1)C(=O)N1CCC[C@H](N1)C(=O)OCC(C)(C)C2 (atropisomer, axis not shown) [Compound A607] |
| < 10 | – | – | CCn1c(-c2cccnc2[C@H](C)OC)c2c3cc(ccc31)-c1csc(n1)C[C@H](NC(=O)[C@H](C(C)C)N(C)C(=O)N1CCN3CCOCC3C1)C(=O)N1CCC[C@H](N1)C(=O)OCC(C)(C)C2 (some centres unmarked) [Compound A296] |
| – | 10 to 100 | – | CCn1c(-c2cccnc2[C@H](C)OC)c2c3cc(ccc31)-c1cc(O)cc(c1)C[C@H](NC(=O)[C@H](C(C)C)N(C)C(=O)C1CCC3(CCOC3)O1)C(=O)N1CCC[C@H](N1)C(=O)OCC(C)(C)C2 (some centres unmarked) [Compound A409] |
| – | 10 to 100 | – | CCn1c(-c2cccnc2[C@H](C)OC)c2c3cc(ccc31)-c1csc(n1)C[C@H](NC(=O)[C@H](C(C)C)N(C)C(=O)N1CC(C#N)(N(C)C)C1)C(=O)N1CCC[C@H](N1)C(=O)OCC(C)(C)C2 [Compound A452] |

| SMILES | IC50 (NCI-H358 (K-Ras G12C)) [nM] | IC50 (NRAS Q61K) [nM] | IC50 (NRAS Q61R) [nM] |
| --- | --- | --- | --- |
| CCn1c(-c2cccnc2[C@H](C)OC)c2c3cc(ccc31)-c1csc(n1)C[C@H](NC(=O)[C@H](C(C)C)N(C)C(=O)N1CC(S(=O)(=O)N(C)C)C1)C(=O)N1CCC[C@H](N1)C(=O)OCC(C)(C)C2 (atropisomer, axis not shown) [Compound A551] | < 10 | 10 to 100 | – |
| CCn1c(-c2cccnc2[C@H](C)OC)c2c3cc(ccc31)-c1cc(O)cc(c1)C[C@H](NC(=O)C1CCC3C1C3(F)F)C(=O)N1CCC[C@H](N1)C(=O)OCC(C)(C)C2 (some centres unmarked) [Compound A181] | – | – | > 10000 |
| CO[C@@H](C)c1ncccc1-c1c2c3cc(ccc3n1CC(F)(F)F)-c1csc(n1)C[C@H](NC(=O)[C@H](C(C)C)N(C)C(=O)N1CC(N(C)C)C1)C(=O)N1CCC[C@H](N1)C(=O)OCC(C)(C)C2 [Compound A303] | < 10 | – | – |
| CCn1c(-c2cccnc2[C@H](C)OC)c2c3cc(ccc31)-c1csc(n1)C[C@H](NC(=O)[C@H](C(C)C)N(C)C(=O)N1C3COCC1C3)C(=O)N1CCC[C@H](N1)C(=O)OCC(C)(C)C2 [Compound A540] | – | 10 to 100 | – |
